Assay in all cases: relative viability (nuclei count vs DMSO), 5 days (fraction); higher = more cells survive
Compound in the test “JZL-184 + Vorinostat”: C1CN(CCC1C(C2=CC3=C(C=C2)OCO3)(C4=CC5=C(C=C4)OCO5)O)C(=O)OC6=CC=C(C=C6)[N+](=O)[O-] [JZL-184] + O=C(CCCCCCC(=O)Nc1ccccc1)NO [Vorinostat] (partner 1 µM)
The method in brief: (§1)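 Medians of duplicate plates are given as relative viability. That measure is the nuclei count in treated wells divided by the count in vehicle wells. Counts were taken on 4× images of lung cancer cell lines in 1536-well plates, 5 days after pin-tool dosing the day after seeding with one drug alone or a fixed anchor-drug dose plus five library-drug doses (not always all listed) in √10 steps.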

Compound in the test “JZL-184 + Pictilisib”: C1CN(CCC1C(C2=CC3=C(C=C2)OCO3)(C4=CC5=C(C=C4)OCO5)O)C(=O)OC6=CC=C(C=C6)[N+](=O)[O-] [JZL-184] + CS(=O)(=O)N1CCN(Cc2cc3nc(-c4cccc5[nH]ncc45)nc(N4CCOCC4)c3s2)CC1 [Pictilisib] (partner 1 µM)
The method in brief:
as §1

Compound in the test “JZL-184 + Tozasertib”: C1CN(CCC1C(C2=CC3=C(C=C2)OCO3)(C4=CC5=C(C=C4)OCO5)O)C(=O)OC6=CC=C(C=C6)[N+](=O)[O-] [JZL-184] + Cc1cc(Nc2cc(N3CCN(C)CC3)nc(Sc3ccc(NC(=O)C4CC4)cc3)n2)n[nH]1 [Tozasertib] (partner 0.1 µM)
The method in brief: as §1

Compound in the test “JZL-184 + Alpelisib”: C1CN(CCC1C(C2=CC3=C(C=C2)OCO3)(C4=CC5=C(C=C4)OCO5)O)C(=O)OC6=CC=C(C=C6)[N+](=O)[O-] [JZL-184] + Cc1nc(NC(=O)N2CCC[C@H]2C(N)=O)sc1-c1ccnc(C(C)(C)C(F)(F)F)c1 [Alpelisib] (partner 2 µM)
The method in brief:
as §1

Compound in the test “JZL-184 + Phenformin”: C1CN(CCC1C(C2=CC3=C(C=C2)OCO3)(C4=CC5=C(C=C4)OCO5)O)C(=O)OC6=CC=C(C=C6)[N+](=O)[O-] [JZL-184] + N=C(N)NC(=N)NCCc1ccccc1 [Phenformin] (partner 250 µM)
The method in brief: as §1

On to LCLC-97TM1, for which the relative viability turned out to be 1.03 with JZL-184 + Vorinostat (first compound 0.04 µM); 0.644 with JZL-184 + Vorinostat (first compound 0.4 µM); 0.619 with JZL-184 + Vorinostat (first compound 1.265 µM); 0.749 with JZL-184 + Vorinostat (first compound 4 µM); 0.259 in the test with JZL-184 + Pictilisib (first compound 0.04 µM); 0.237 in the test with JZL-184 + Pictilisib (first compound 1.265 µM). For the same cell line, the relative viability in the test with JZL-184 + Pictilisib (first compound 4 µM) stood at 0.201; in the test with JZL-184 + Tozasertib (first compound 0.04 µM), 0.41; with JZL-184 + Tozasertib (first compound 0.4 µM), 0.177; with JZL-184 + Tozasertib (first compound 1.265 µM) it was 0.242; with JZL-184 + Tozasertib (first compound 4 µM), 0.242; with JZL-184 + Alpelisib (first compound 0.04 µM) it was 0.242. The relative viability was 0.252 with JZL-184 + Alpelisib (first compound 1.265 µM); 0.295 with JZL-184 + Alpelisib (first compound 4 µM); 0.396 in the test with JZL-184 + Phenformin (first compound 0.04 µM); 0.431 with JZL-184 + Phenformin (first compound 0.4 µM); 0.449 with JZL-184 + Phenformin (first compound 1.265 µM); 0.435 with JZL-184 + Phenformin (first compound 4 µM).
In the case of LCLC-103H, the relative viability with JZL-184 + Vorinostat (first compound 0.04 µM) turned out to be 0.72; with JZL-184 + Vorinostat (first compound 0.4 µM), 0.752; with JZL-184 + Vorinostat (first compound 1.265 µM) it was 0.768; in the test with JZL-184 + Vorinostat (first compound 4 µM) it was 0.734; in the test with JZL-184 + Pictilisib (first compound 0.04 µM), 0.574; with JZL-184 + Pictilisib (first compound 0.4 µM), 0.49. For the same cell line, the relative viability in the test with JZL-184 + Pictilisib (first compound 1.265 µM) amounted to 0.654; with JZL-184 + Pictilisib (first compound 4 µM), 0.615; with JZL-184 + Tozasertib (first compound 0.04 µM), 0.488; in the test with JZL-184 + Tozasertib (first compound 0.4 µM), 0.521; with JZL-184 + Tozasertib (first compound 1.265 µM), 0.521; in the test with JZL-184 + Tozasertib (first compound 4 µM), 0.529. The relative viability with JZL-184 + Alpelisib (first compound 0.04 µM) turned out to be 1.03; with JZL-184 + Alpelisib (first compound 0.4 µM), 0.867; with JZL-184 + Alpelisib (first compound 1.265 µM), 1.05; with JZL-184 + Alpelisib (first compound 4 µM), 0.981; with JZL-184 + Phenformin (first compound 0.04 µM), 0.338; with JZL-184 + Phenformin (first compound 0.4 µM), 0.296. The relative viability in the test with JZL-184 + Phenformin (first compound 1.265 µM) turned out to be 0.345; with JZL-184 + Phenformin (first compound 4 µM), 0.323.
Regarding LK-2, the relative viability with JZL-184 + Vorinostat (first compound 0.04 µM) is 0.275; in the test with JZL-184 + Vorinostat (first compound 0.4 µM) it was 0.309; with JZL-184 + Vorinostat (first compound 1.265 µM), 0.251; in the test with JZL-184 + Vorinostat (first compound 4 µM), 0.295; with JZL-184 + Pictilisib (first compound 0.04 µM) it was 0.511; in the test with JZL-184 + Pictilisib (first compound 0.4 µM), 0.6. In addition, the relative viability in the test with JZL-184 + Pictilisib (first compound 1.265 µM) was 0.632; in the test with JZL-184 + Pictilisib (first compound 4 µM) it was 0.645; with JZL-184 + Tozasertib (first compound 0.04 µM), 0.166; with JZL-184 + Tozasertib (first compound 0.4 µM), 0.163; in the test with JZL-184 + Tozasertib (first compound 1.265 µM), 0.171; in the test with JZL-184 + Tozasertib (first compound 4 µM) it was 0.181. The relative viability with JZL-184 + Alpelisib (first compound 0.04 µM) was determined as 1.55; in the test with JZL-184 + Alpelisib (first compound 0.4 µM) it was 1.14; with JZL-184 + Alpelisib (first compound 1.265 µM), 1.06; with JZL-184 + Alpelisib (first compound 4 µM), 1.06; in the test with JZL-184 + Phenformin (first compound 0.04 µM), 0.374; with JZL-184 + Phenformin (first compound 0.4 µM), 0.676. Further, the relative viability was 0.678 with JZL-184 + Phenformin (first compound 1.265 µM) and 0.416 in the test with JZL-184 + Phenformin (first compound 4 µM).
Consider NCI-H1563, for which the relative viability with JZL-184 + Pictilisib (first compound 0.04 µM) was 0.673; with JZL-184 + Pictilisib (first compound 0.4 µM), 0.676; with JZL-184 + Pictilisib (first compound 1.265 µM) it was 0.669; with JZL-184 + Pictilisib (first compound 4 µM), 0.675; in the test with JZL-184 + Alpelisib (first compound 0.04 µM), 0.934; with JZL-184 + Alpelisib (first compound 0.4 µM), 0.964. Also, the relative viability with JZL-184 + Alpelisib (first compound 1.265 µM) was determined as 0.899; in the test with JZL-184 + Alpelisib (first compound 4 µM), 0.914; in the test with JZL-184 + Phenformin (first compound 0.04 µM), 0.694; with JZL-184 + Phenformin (first compound 0.4 µM) it was 0.636; in the test with JZL-184 + Phenformin (first compound 1.265 µM), 0.681; with JZL-184 + Phenformin (first compound 4 µM), 0.64.
As to NCI-H1650, the relative viability with JZL-184 + Vorinostat (first compound 0.04 µM) came to 0.715; in the test with JZL-184 + Vorinostat (first compound 0.4 µM), 0.541; in the test with JZL-184 + Vorinostat (first compound 1.265 µM), 0.604; in the test with JZL-184 + Vorinostat (first compound 4 µM), 0.561; with JZL-184 + Pictilisib (first compound 0.04 µM), 0.734; with JZL-184 + Pictilisib (first compound 0.4 µM), 0.53. The relative viability in the test with JZL-184 + Pictilisib (first compound 1.265 µM) worked out at 0.741; with JZL-184 + Pictilisib (first compound 4 µM), 0.696; with JZL-184 + Tozasertib (first compound 0.04 µM), 0.417; in the test with JZL-184 + Tozasertib (first compound 0.4 µM), 0.325; in the test with JZL-184 + Tozasertib (first compound 1.265 µM) it was 0.432; in the test with JZL-184 + Tozasertib (first compound 4 µM) it was 0.257. Further, the relative viability came out at 0.427 in the test with JZL-184 + Phenformin (first compound 0.04 µM), 0.411 in the test with JZL-184 + Phenformin (first compound 0.4 µM), 0.524 with JZL-184 + Phenformin (first compound 1.265 µM) and 0.357 in the test with JZL-184 + Phenformin (first compound 4 µM).
As to NCI-H1703, the relative viability in the test with JZL-184 + Pictilisib (first compound 0.04 µM) was found to be 0.265; in the test with JZL-184 + Pictilisib (first compound 0.4 µM), 0.216; in the test with JZL-184 + Pictilisib (first compound 1.265 µM) it was 0.288; in the test with JZL-184 + Pictilisib (first compound 4 µM), 0.246; with JZL-184 + Alpelisib (first compound 0.04 µM), 0.335; with JZL-184 + Alpelisib (first compound 0.4 µM), 0.295. For the same cell line, the values for the relative viability in the test with JZL-184 + Alpelisib (first compound 1.265 µM) and with JZL-184 + Alpelisib (first compound 4 µM) were 0.389 and 0.294, respectively.
In the case of NCI-H1792, the relative viability amounted to 0.304 in the test with JZL-184 + Pictilisib (first compound 0.04 µM); 0.232 in the test with JZL-184 + Pictilisib (first compound 0.4 µM); 0.302 with JZL-184 + Pictilisib (first compound 1.265 µM); 0.28 with JZL-184 + Pictilisib (first compound 4 µM); 0.835 with JZL-184 + Alpelisib (first compound 0.04 µM); 0.613 with JZL-184 + Alpelisib (first compound 0.4 µM). Further, the relative viability was found to be 0.762 with JZL-184 + Alpelisib (first compound 1.265 µM); 0.757 with JZL-184 + Alpelisib (first compound 4 µM); 0.288 with JZL-184 + Phenformin (first compound 0.04 µM); 0.147 with JZL-184 + Phenformin (first compound 0.4 µM); 0.62 with JZL-184 + Phenformin (first compound 1.265 µM); 0.281 with JZL-184 + Phenformin (first compound 4 µM).
Turning to NCI-H2342, the relative viability with JZL-184 + Vorinostat (first compound 0.04 µM) worked out at 0.809; with JZL-184 + Vorinostat (first compound 0.4 µM), 0.676; in the test with JZL-184 + Vorinostat (first compound 1.265 µM), 0.719; in the test with JZL-184 + Vorinostat (first compound 4 µM) it was 0.813; with JZL-184 + Tozasertib (first compound 0.04 µM), 0.432; with JZL-184 + Tozasertib (first compound 0.4 µM) it was 0.399. In addition, the relative viability with JZL-184 + Tozasertib (first compound 1.265 µM) was 0.485; with JZL-184 + Tozasertib (first compound 4 µM) it was 0.449; with JZL-184 + Phenformin (first compound 0.04 µM) it was 0.598; with JZL-184 + Phenformin (first compound 0.4 µM), 0.534; in the test with JZL-184 + Phenformin (first compound 1.265 µM) it was 0.635; with JZL-184 + Phenformin (first compound 4 µM) it was 0.697.
For SW 900, the relative viability with JZL-184 + Vorinostat (first compound 0.04 µM) was determined as 0.496; with JZL-184 + Vorinostat (first compound 0.4 µM), 0.4; with JZL-184 + Vorinostat (first compound 1.265 µM), 0.587; with JZL-184 + Vorinostat (first compound 4 µM) it was 0.527; with JZL-184 + Tozasertib (first compound 0.04 µM) it was 0.497; with JZL-184 + Tozasertib (first compound 0.4 µM), 0.459. Also, the relative viability was determined as 0.605 with JZL-184 + Tozasertib (first compound 1.265 µM); 0.482 with JZL-184 + Tozasertib (first compound 4 µM); 0.595 with JZL-184 + Phenformin (first compound 0.04 µM); 0.506 with JZL-184 + Phenformin (first compound 0.4 µM); 0.555 in the test with JZL-184 + Phenformin (first compound 1.265 µM); 0.748 with JZL-184 + Phenformin (first compound 4 µM).

The values are drawn from the supplement of paper PMC10307832.
